{
  "source": "patent US20240349733A1",
  "about": "(priority 2023, published 2024)",
  "molecules": {"B1": {"name": "22602-SoD2*: STAMP, SEQ ID NO: 25; binder 22602, GGSGGS linker, SOD2* (peptide)", "chain": "MGINGFKFLSDIHHFCSGGSGGSGIFSSRKCKTPSKTFKGICTRDSNCDTSCRYEGYPAGDCKGIRRRCLCCTHT"}, "B2": {"name": "57020-SoD2*: STAMP, SEQ ID NO: 27; binder 57020, GGSGGS linker, SOD2* (peptide)", "chain": "SRNSSIALGLRRAYAVFNYFVARGIGGSGGSGIFSSRKCKTPSKTFKGICTRDSNCDTSCRYEGYPAGDCKGIRRRCLCCTHT"}, "B3": {"name": "57020-SOD12: STAMP, SEQ ID NO: 23; binder 57020, GGSGGS linker, SOD12 (peptide)", "chain": "SRNSSIALGLRRAYAVFNYFVARGIGGSGGSRICESASYRFKGICVSRSNCANVCKNEGFPGGRCRGFRRRCLCYKHCG"}, "B4": {"name": "SOD12-57020: STAMP, SEQ ID NO: 24; SOD12, GGSGGS linker, binder 57020 (peptide)", "chain": "RICESASYRFKGICVSRSNCANVCKNEGFPGGRCRGFRRRCLCYKHCGGGSGGSSRNSSIALGLRRAYAVFNYFVARGI"}, "B5": {"name": "22602-SOD12: STAMP, SEQ ID NO: 21; binder 22602, GGSGGS linker, SOD12 (peptide)", "chain": "MGINGFKFLSDIHHFCSGGSGGSRICESASYRFKGICVSRSNCANVCKNEGFPGGRCRGFRRRCLCYKHCG"}, "B6": {"name": "SOD12-22602: STAMP, SEQ ID NO: 22; SOD12, GGSGGS linker, binder 22602 (peptide)", "chain": "RICESASYRFKGICVSRSNCANVCKNEGFPGGRCRGFRRRCLCYKHCGGGSGGSMGINGFKFLSDIHHFCS"}},
  "key": {"[1]": {"biological_target": "CLas BamA protein (Candidatus Liberibacter asiaticus, UniProt Q32TE9)", "type": "binding", "settings": "for Kd: read-out: KD, affinity constant"}, "[2]": {"biological_target": "CLas BamA protein (Candidatus Liberibacter asiaticus)", "assay": "BLI (BLItz), […], global fit, triplicate"}, "[3]": {"system": "R. grahamii", "type": "binding, Rhizobium grahamii"}, "[4]": {"system": "putative CLas cells in bacterial extracts from HLB-affected trees", "type": "binding, Candidatus Liberibacter asiaticus"}, "[5]": {"system": "R. galegae", "assay": "FITC-labeled peptide binding assay, fluorescence microscopy", "set-up": "species or system Rhizobium galegae"}, "[6]": {"system": "L. crescens", "type": "binding, Liberibacter crescens"}, "[7]": {"system": "E. coli", "assay": "FITC-labeled peptide binding assay, fluorescence microscopy", "set-up": "species or system Escherichia coli"}, "[8]": {"system": "cells in healthy citrus tree extracts", "type": "binding"}, "[9]": {"system": "CLas", "type": "in vivo, Candidatus Liberibacter asiaticus", "settings": "for Reduction in CLas titers compared to SOD2* or SOD12 alone: roots of 4 months old composite plants stably expressing the STAMP"}, "[10]": {"system": "CLas", "type": "cell-based, Candidatus Liberibacter asiaticus", "settings": "72 hours; 25, 50, 100 μg/ml"}, "[11]": {"system": "L. crescens"}, "[12]": {"system": "R. grahamii", "type": "cell-based, Rhizobium grahamii", "settings": "10, 25, 50, 100 μg/ml"}, "[13]": {"system": "R. galegae", "type": "cell-based, Rhizobium galegae", "settings": "N- or C-terminus orientation"}, "[14]": {"settings": "BLI, pH 6.5 Tris buffer, mean ± SD"}, "[15]": {"settings": "binders 16 μM, bacterial extracts from HLB-affected citrus trees"}, "[16]": {"settings": "binders 16 μM, unrelated bacterium"}, "[17]": {"settings": "especially at lower dosages (50 μg/ml)"}},
  "note": "Entries after “also recorded” stand apart in the source; their conditions may differ. Like-named read-outs stand apart in the source and are kept apart here. Ends that are not written are not given here.",
  "data": [
    {"molecule": "NC(N)=NC(=O)CC(Nc1nc(N=C(N)N)nc(NC2CCC(NC(=O)Cn3nnc(-c4ccc(F)cc4)n3)CC2)n1)C1CC1", "note": "(centres unmarked) [MRL-494, reference compound]", "values": [
      {"measurement": "Kd, rate of dissociation", "setting": "[1]; [14]", "value": "0.0813 ± 1", "unit": "s⁻¹"},
      {"measurement": "Kd", "setting": "[1]; [14]", "value": 6970, "unit": "nM"}
    ]},
    {"molecule": "ACT56869.1_241-255 (peptide)", "values": [
      {"measurement": "Kd", "setting": "[2]", "value": 270, "unit": "nM"},
      {"measurement": "koff", "setting": "[2]", "value": 0.0117, "unit": "s⁻¹"},
      {"measurement": "kon", "setting": "[2]", "value": 49600, "unit": "M⁻¹ s⁻¹"}
    ]},
    {"molecule": "ACT56973.1_80-96 (peptide)", "values": [
      {"measurement": "Kd", "setting": "[2]", "value": 248, "unit": "nM"},
      {"measurement": "koff", "setting": "[2]", "value": 0.211, "unit": "s⁻¹"},
      {"measurement": "kon", "setting": "[2]", "value": 852000, "unit": "M⁻¹ s⁻¹"}
    ]},
    {"molecule": "ACT57020.1_94-118 (peptide)", "values": [
      {"measurement": "Kd", "setting": "[2]", "value": 209, "unit": "nM"},
      {"measurement": "koff", "setting": "[2]", "value": 0.0032, "unit": "s⁻¹"},
      {"measurement": "kon", "setting": "[2]", "value": 15900, "unit": "M⁻¹ s⁻¹"}
    ]},
    {"molecule": "DLHPQFQNLLKKSQN [ACT56869.1_241-255]", "values": [
      {"measurement": "Ka, rate of association", "setting": "[1]; [14]", "value": "49610 ± 1", "unit": "M⁻¹ s⁻¹"},
      {"measurement": "Kd, rate of dissociation", "setting": "[1]; [14]", "value": "0.01167 ± 1", "unit": "s⁻¹"},
      {"measurement": "Kd", "setting": "[1]; [14]", "value": 270, "unit": "nM"}
    ]},
    {"molecule": "MGINGFKFLSDIHHFCS [compound 22602, MGINGFKFLSDIHHFCS]", "values": [
      {"measurement": "Binding of FITC-labeled binder to R. grahamii", "setting": "[3]", "value": "consistent binding; also recorded: bound"},
      {"measurement": "Binding of FITC-labeled binder to CLas cells", "setting": "[4]", "value": "consistent binding; also recorded: bound"},
      {"measurement": "Binding of FITC-labeled binder to R. galegae", "setting": "[5]", "value": "consistent binding; also recorded: bound"},
      {"measurement": "Binding of FITC-labeled binder to L. crescens", "setting": "[6]", "value": "consistent binding; also recorded: bound"},
      {"measurement": "Binding of FITC-labeled binder to E. coli", "setting": "[7]", "value": "not to E. coli"},
      {"measurement": "Binding of FITC-labeled binder to cells in healthy citrus tree extracts", "setting": "[8]", "value": "not"}
    ]},
    {"molecule": "QSFYYVSQKKKWFPVKF [ACT56973.1_80-96]", "values": [
      {"measurement": "Ka, rate of association", "setting": "[1]; [14]", "value": "852433 ± 1", "unit": "M⁻¹ s⁻¹"},
      {"measurement": "Kd, rate of dissociation", "setting": "[1]; [14]", "value": "0.2111 ± 1", "unit": "s⁻¹"},
      {"measurement": "Kd", "setting": "[1]; [14]", "value": 248, "unit": "nM"}
    ]},
    {"molecule": "RICESASYRFKGICVSRSNCANVCKNEGFPGGRCRGFRRRCLCYKHCG (cysteines drawn unpaired) [SOD12]", "values": [
      {"measurement": "CLas titers compared to empty vector controls", "setting": "[9]; in vivo", "value": "significantly lowered"},
      {"measurement": "Anti-CLas activity (relative CLas titers by qPCR)", "setting": "[10]", "value": "ineffective or moderately effective"},
      {"measurement": "Mortality of L. crescens at lower dosage", "setting": "[11]", "value": "ineffective"},
      {"measurement": "Mortality rate of L. crescens", "setting": "[11]", "value": "65-85%"}
    ]},
    {"molecule": "SRNSSIALGLRRAYAVFNYFVARGI [compound 57020]", "values": [
      {"measurement": "Ka, rate of association", "setting": "[1]; pH 6.5", "value": "15857 ± 1", "unit": "M⁻¹ s⁻¹"},
      {"measurement": "Kd, rate of dissociation", "setting": "[1]; pH 6.5", "value": "0.0032 ± 1", "unit": "s⁻¹"},
      {"measurement": "Kd", "setting": "[1]; pH 6.5", "value": 209, "unit": "nM"},
      {"measurement": "Binding of FITC-labeled binder to R. grahamii", "setting": "[3]", "value": "consistent binding; also recorded: bound"},
      {"measurement": "Binding of FITC-labeled binder to CLas cells", "setting": "[4]", "value": "consistent binding; also recorded: bound"},
      {"measurement": "Binding of FITC-labeled binder to R. galegae", "setting": "[5]", "value": "consistent binding; also recorded: bound"},
      {"measurement": "Binding of FITC-labeled binder to L. crescens", "setting": "[6]", "value": "consistent binding; also recorded: bound"},
      {"measurement": "In vitro growth inhibition of R. grahamii, efficacy compared to SOD12 alone", "setting": "[12]", "value": "significantly greater efficacy"},
      {"measurement": "Binding of FITC-labeled binder to E. coli", "setting": "[7]", "value": "not to E. coli"},
      {"measurement": "Binding of FITC-labeled binder to cells in healthy citrus tree extracts", "setting": "[8]", "value": "not"}
    ]},
    {"molecule": "WHVTFY [#11]", "values": [
      {"measurement": "Binding of FITC-labeled binder to R. grahamii", "setting": "[3]; binders 16 μM", "value": "bound"},
      {"measurement": "Binding of FITC-labeled binder to CLas cells", "setting": "[4]; [15]", "value": "bound"},
      {"measurement": "Binding of FITC-labeled binder to R. galegae", "setting": "[5]; binders 16 μM", "value": "bound"},
      {"measurement": "Binding of FITC-labeled binder to L. crescens", "setting": "[6]; binders 16 μM", "value": "bound"},
      {"measurement": "Binding of FITC-labeled binder to E. coli", "setting": "[7]; [16]", "value": "not to E. coli"},
      {"measurement": "Binding of FITC-labeled binder to cells in healthy citrus tree extracts", "setting": "[8]; binders 16 μM", "value": "not"}
    ]},
    {"molecule": "WHVTYF [#12]", "values": [
      {"measurement": "Binding of FITC-labeled binder to R. grahamii", "setting": "[3]; binders 16 μM", "value": "bound"},
      {"measurement": "Binding of FITC-labeled binder to CLas cells", "setting": "[4]; [15]", "value": "bound"},
      {"measurement": "Binding of FITC-labeled binder to R. galegae", "setting": "[5]; binders 16 μM", "value": "bound"},
      {"measurement": "Binding of FITC-labeled binder to L. crescens", "setting": "[6]; binders 16 μM", "value": "bound"},
      {"measurement": "Binding of FITC-labeled binder to E. coli", "setting": "[7]; [16]", "value": "not to E. coli"},
      {"measurement": "Binding of FITC-labeled binder to cells in healthy citrus tree extracts", "setting": "[8]; binders 16 μM", "value": "not"}
    ]},
    {"molecule": "B1", "values": [
      {"measurement": "Reduction in CLas titers compared to SOD2* or SOD12 alone", "setting": "[9]", "value": "even greater reduction in CLas titers"}
    ]},
    {"molecule": "B2", "values": [
      {"measurement": "Reduction in CLas titers compared to SOD2* or SOD12 alone", "setting": "[9]", "value": "even greater reduction in CLas titers"}
    ]},
    {"molecule": "B3", "values": [
      {"measurement": "Efficacy in R. galegae compared with 22602-SOD12 and SOD12-57020 (binder orientation)", "setting": "[13]", "value": "lower efficacy"},
      {"measurement": "In vitro growth inhibition of R. grahamii, efficacy compared to SOD12 alone", "setting": "[12]; [17]", "value": "significantly greater efficacy"}
    ]},
    {"molecule": "B4", "values": [
      {"measurement": "In vitro growth inhibition of R. grahamii, efficacy compared to SOD12 alone", "setting": "[12]; [17]", "value": "significantly greater efficacy"}
    ]},
    {"molecule": "B5", "values": [
      {"measurement": "Reduction in CLas titers compared to SOD2* or SOD12 alone", "setting": "[9]", "value": "even greater reduction in CLas titers"}
    ]},
    {"molecule": "B6", "values": [
      {"measurement": "Efficacy in R. galegae compared with 22602-SOD12 and SOD12-57020 (binder orientation)", "setting": "[13]", "value": "lower efficacy"}
    ]}
  ]
}
